Read-outs that look alike come from different tables or passages of the source.
How the values were obtained:
full-length human Cal1 [1] = target: T1, full-length human Cal1 (Homo sapiens (Human), UniProt P07384); assay: Calpain inhibition FRET assay; assay type: biochemical; conditions: Table 2; approximate IC50; read-out: Cal I IC50
Cal I = assay: Relative selectivity for Cal I (E64 = 1.0), Table 2; assay type: biochemical; conditions: relative to E64 = 1.0
primary neurons = assay: LD50 in primary neurons; assay type: cell-based; conditions: YES = LD50 ≧ 50 μM in primary neurons
[2] = target: Full length porcine calpain (Sus scrofa (Pig), UniProt P35750); assay: Calpain inhibition kinetics studies (Suc-LLVY-AMC substrate); assay type: biochemical; conditions: for Ki: apparent equilibrium constant, read-out: K1 Calpain1; for Ki / ki Calpain1: full length Cal1; for ki Calpain1: inhibition rate; for rel Calpain1: ki/Ki calculated relative to E-64
Full length porcine calpain, sequence (P35750 whole entry): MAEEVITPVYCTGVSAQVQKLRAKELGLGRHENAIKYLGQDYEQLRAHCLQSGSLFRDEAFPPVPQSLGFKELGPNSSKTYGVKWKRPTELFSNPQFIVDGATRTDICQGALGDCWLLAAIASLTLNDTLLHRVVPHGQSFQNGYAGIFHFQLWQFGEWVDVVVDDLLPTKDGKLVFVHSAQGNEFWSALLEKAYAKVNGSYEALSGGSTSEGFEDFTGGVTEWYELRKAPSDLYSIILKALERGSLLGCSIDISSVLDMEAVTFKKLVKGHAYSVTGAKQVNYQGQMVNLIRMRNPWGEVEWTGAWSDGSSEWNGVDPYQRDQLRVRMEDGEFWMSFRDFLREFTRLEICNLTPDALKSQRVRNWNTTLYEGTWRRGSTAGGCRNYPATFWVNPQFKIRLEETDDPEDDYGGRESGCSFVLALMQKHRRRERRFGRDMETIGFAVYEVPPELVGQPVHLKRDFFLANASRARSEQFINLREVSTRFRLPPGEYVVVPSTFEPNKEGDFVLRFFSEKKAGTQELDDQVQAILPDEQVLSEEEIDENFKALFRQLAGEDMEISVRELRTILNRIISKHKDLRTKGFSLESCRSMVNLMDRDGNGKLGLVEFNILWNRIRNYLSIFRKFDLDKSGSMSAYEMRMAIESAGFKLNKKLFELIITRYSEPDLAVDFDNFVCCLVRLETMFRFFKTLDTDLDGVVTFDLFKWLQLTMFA
Full length porcine calpain, sequence (P04574 whole entry partner): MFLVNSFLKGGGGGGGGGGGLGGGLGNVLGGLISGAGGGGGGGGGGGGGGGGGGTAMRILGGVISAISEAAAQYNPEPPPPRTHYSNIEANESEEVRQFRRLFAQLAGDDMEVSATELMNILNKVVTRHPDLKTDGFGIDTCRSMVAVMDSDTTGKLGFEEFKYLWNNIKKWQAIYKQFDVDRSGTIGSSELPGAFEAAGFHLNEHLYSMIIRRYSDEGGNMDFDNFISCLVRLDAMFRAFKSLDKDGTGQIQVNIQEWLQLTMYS
Excerpt: (§1) Papain is representative of a family of typically lysosomal or secreted cysteine proteases, including the human cathepsins (B, C, F, H, K, L1-2, O, S, W, Z). […] Several methods have been reported in the literature for detailed kinetic analysis of the irreversible inhibition of cysteine proteases, including Cal1. […] (SEQ ID NO: 8). Using this substrate, kinetic parameters were derived using the method of Davies and co-workers, whereby “progress curves” were initially obtained measuring product formation as a function of time and fitted to y=P∞*(1−e^(−k*x)) (FIG. 7) (Cuerrier, D. et al., J Biol Chem 2007, 282, 9600-11; herein incorporated by reference in its entirety). […] Kinetic parameters (ki, KI, ki/KI) were obtained from double reciprocal plots (FIG. 7).
(§2) Full length porcine calpain (156 nM), or papain (236 pM) was added to a solution of 100 mM NaCl, 50 mM HEPES, pH 7.6, 1 mM TCEP, 30 μM Suc-LLVY-AMC (SEQ ID NO: 8) substrate, and inhibitor (0.5 to 50 μM). Calpain reactions also contained CaCl2 (1 mM and 100 mM for porcine and rat respectively). Both substrate and inhibitors were dissolved in acetonitrile/DMSO (1:1) with the exception of E-64, dissolved in water. Organic solvent remained <2% in all reactions, and most often <1%. Reactions were carried out in microtiter 96-well plates, with 150 μL per well, 30° C., and product formation was monitored over time by fluorescence (Ex/Em 346/444 nm, with 420 nm cutoff filter). Kinetic values of kobs were determined via non-linear regression using one-phase association analysis and linear plots of 1/kobs vs. 1/[I] provided kinetic constants ki and KI.

papain = papain (Carica papaya (Papaya), UniProt P00784); assay: biochemical; assay type: biochemical; conditions: for ki Papain: inhibition rate; for rel Papain: ki/Ki calculated relative to E-64
papain, sequence (P00784 134-345): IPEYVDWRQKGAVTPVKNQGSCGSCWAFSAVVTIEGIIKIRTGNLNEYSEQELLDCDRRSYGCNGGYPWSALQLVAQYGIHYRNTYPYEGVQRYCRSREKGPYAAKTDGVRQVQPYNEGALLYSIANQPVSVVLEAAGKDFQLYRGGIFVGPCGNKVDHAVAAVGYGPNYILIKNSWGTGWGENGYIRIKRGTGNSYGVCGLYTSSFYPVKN
Excerpt: as §1, §2

Cal1cat vs CathB = assay: Competition assay for Cal1 vs CathB using the biotinylated epoxide probe; assay type: binding, rat; conditions: for blocking of active site modification by probe 27 (western blot signal): 10 min pre-treatment, then 20 min with 27
Protocol: Anti-biotin western blotting of Cal1cat (Lane 6) or CathB (Lane 7) after incubation with 27 show the expected immunoreactivity of the covalently modified proteins. […] Densitometric analysis, using means from triplicate immunoblots, was used to estimate the modification of each protein by 27 in the presence of inhibitors relative to control (Lane 1: ratio=1.0).
Cal1cat was used in place of the full length enzyme to avoid autocatalysis.
Cal1cat and CathB were pre-treated with inhibitors for 10 min, followed by a 20 min incubation with the biotinylated epoxide, 27, as illustrated in FIG. 4. […] A more quantitative estimate of selectivity was achieved by comparison of band intensities.
The appropriate inhibitor (5 μM) was pre-incubated in a mixture containing Cal1cat (2 μM), CathB (2 μM), TCEP (1 mM), and Ca^2+ (30 μM) for 10 min at 37° C. […] (5 μM) was then added and the mixture incubated an additional 20 min. The reaction was quenched with EDTA (10 μM) and samples were ran using 4-16% SDS PAGE gel, subsequently transferred to PVDF membrane and visualized by Pierce ECL (Enhanced chemiluminescent) western blotting substrate, intensity of each blot was calculated using densitometry software. Relative inhibition of each enzyme was calculated with respect to enzyme activity in the absence of inhibitor. Inhibitor preference to Cal1cat with respect to CathB, was calculated by dividing relative Cal1cat inhibition with relative CathB inhibition of that particular inhibitor.

Cal1cat = Cal1cat (Rattus norvegicus (Rat), UniProt P97571); assay: LC-MS/MS examination of inhibitor modified Cal1cat active site; assay type: binding; conditions: for modification of the active site cysteine of Cal1cat: Cal1cat 1 μM, varying inhibitor concentration
Cal1cat, sequence (P97571 other isoform, or with tags, fused parts or gaps): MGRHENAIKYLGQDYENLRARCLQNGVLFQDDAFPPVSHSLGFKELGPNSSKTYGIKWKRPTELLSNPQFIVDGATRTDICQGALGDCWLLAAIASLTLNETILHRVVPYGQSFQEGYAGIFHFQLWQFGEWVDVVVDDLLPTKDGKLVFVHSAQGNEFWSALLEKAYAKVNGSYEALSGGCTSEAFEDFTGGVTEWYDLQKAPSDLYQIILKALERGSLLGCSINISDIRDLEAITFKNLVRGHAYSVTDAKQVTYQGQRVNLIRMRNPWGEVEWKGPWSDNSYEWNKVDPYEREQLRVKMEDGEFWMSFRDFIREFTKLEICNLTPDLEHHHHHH
Protocol: (FIG. 3A) After capping of free cysteines with iodoacetamide (IAA) and in gel digest, peptide fragments were analyzed by LC-MS/MS. (FIG. 3B) Total ion chromatograms (TIC) for the incubation of recombinant Cal1cat (5 μM) in the absence or presence of inhibitors (10 μM). A non-active site and IAA-capped peptide fragment (Rt=41.3 min) was used as an internal standard for EIC quantitation. (FIG. 3C) Active site Cys modification of Cal1cat was concentration dependent in incubation containing Cal1cat (1 μM) and vary concentrations of inhibitors.
Inhibition kinetics and x-ray crystallography support a mechanism of calpain inhibition by E-64, resulting from covalent modification of the active site Cys (Suzuki, K. et al., FEBS Letters 1983, 152, 67-70; herein incorporated by reference in its entirety). LC-MS/MS was used to support a similar mechanism for 24a. The experimental methodology is outlined in FIG. 3A. Cal1cat (5 μM) was incubated with the appropriate inhibitor (10 μM) for 30 min. The mixture was quenched with EDTA (10 μM), and run on a SDS PAGE gel. Band excision, in-gel capping office cysteines with iodoacetamide (IAA, […]), tryptic digest, and subsequent LC-MS/MS analysis afforded the chromatograms shown in FIG. 3B. […] A peptide fragment containing an IAA labeled non-active site cysteine was used as an internal standard for semi-quantitative EIC analysis of the degree of active site modification observed (FIG. 3B). It is noteworthy that although Cal1cat was employed in these studies, analysis of full length Cal1 gave an identical active site peptide fragment (TIC of control digest from Cal1cat and full length Cal1 are compared in Example 10).
The reaction was quenched with EDTA (10 μM) and reaction mixture ran on a SDS PAGE gel. The Cal1cat containing band was cut from the gel and submitted to in-gel alkylation with IAA (100 mM) for 60 min, followed by trypsin digestion. LC-MS/MS was carried out on an Agilent 6300 Ion-Trap LC/MS. […] The resulting TIC and EIC were analyzed for anticipated m/z modified peptide fragments.

full-length human Cal1 [3] = target: T1, full-length human Cal1; assay: Calpain inhibition FRET assay; assay type: biochemical; conditions: Table 3, 20 min incubation, FRET substrate
Aβ40 and Aβ42 [4] = conditions: earlier observation; cited from earlier work
[5] = system: Aβ-induced LTP impairment; assay: LTP rescue test; conditions: LTP rescue, benchmark
Protocol: Residual levels of potentiation were averaged during the last 5 min of LTP.

APP/PS1 mice [6] = assay: Behavioral rescue assays (contextual fear memory, 2-day RAWM reference memory); assay type: in vivo; conditions: 3 month old APP/PS1 mice
Excerpt: APP/PS1-vehicle: n=15; APP/PS1-67: n=6; APP/PS1-30a: n=10; WT-vehicle: n=15; WT-67=5; WT-30a: n=8, APP/PS1-33: n=11; WT-33: n=8, APP/PS1-50: n=10; WT-50: n=8. P<0.05 in all transgenic groups treated with compound compared to their respective vehicle-treated transgenics.
APP/PS1-vehicle: n=17; APP/PS1-67: n=9; APP/PS1-30a: n=10; WT-vehicle: n=18; WT-67=9; WT-30a: n=9, APP/PS1-33: n=10; WT-33: n=9, APP/PS1-50: n=11; WT-50: n=9.
The ability of compounds to rescue the defects in associative and reference memory in 3 month old APP/PS1 animals was assessed. Capability of ameliorating the defects in contextual fear memory was tested via i.p. administration (FIG. 12). In the 2-day RAWM test, daily injections of the 67, 30a, 33 and 50 from the 2nd month of age were beneficial against the loss of contextual fear memory and reference memory.
Impact of chronic treatment on against memory loss in older APP/PS1 mice (7 months of age) with a more severe plaque load was also investigated. Compounds 67, 33 and 50 were beneficial against memory impairment following chronic administration (FIG. 13).
(§3) The ability of a prodrug to rescue the defects in associative and reference memory in 3 month old APP/PS1 animals was assessed. […] Thus, the esterification seems to improve PK but it spoils PD parameters. Compound 89 ameliorates both LTP and memory in 3 month old APP/PS1 mice (FIG. 15). Daily treatment with 89 from the age of 2 months until 3 months ameliorated the defect in LTP (A) contextual fear memory (B) and reference memory (C) in APP/PS1 mice. n=10 for all groups. P<0.05 in transgenics treated with compound compared to their respective vehicle-treated transgenics.

APP/PS1 mice [7] = assay: LTP in APP/PS1 mice after daily treatment; assay type: in vivo; conditions: daily treatment from 2 until 3 months
Protocol: P<0.05 in transgenics treated with compound compared to their respective vehicle-treated transgenics.
as §3

Aβ40 and Aβ42 [8] = assay: Effect on Aβ levels in APP/PS1 mice; assay type: in vivo; conditions: compound-treated vs vehicle-treated APP/PS1 transgenics
Excerpt: Increase of brain and plasma levels of Aβ and appearance of amyloid plaques is an important feature of AD.

[9] = mean ± S.D. of triplicate experiments

T1 sequence (P07384 whole entry): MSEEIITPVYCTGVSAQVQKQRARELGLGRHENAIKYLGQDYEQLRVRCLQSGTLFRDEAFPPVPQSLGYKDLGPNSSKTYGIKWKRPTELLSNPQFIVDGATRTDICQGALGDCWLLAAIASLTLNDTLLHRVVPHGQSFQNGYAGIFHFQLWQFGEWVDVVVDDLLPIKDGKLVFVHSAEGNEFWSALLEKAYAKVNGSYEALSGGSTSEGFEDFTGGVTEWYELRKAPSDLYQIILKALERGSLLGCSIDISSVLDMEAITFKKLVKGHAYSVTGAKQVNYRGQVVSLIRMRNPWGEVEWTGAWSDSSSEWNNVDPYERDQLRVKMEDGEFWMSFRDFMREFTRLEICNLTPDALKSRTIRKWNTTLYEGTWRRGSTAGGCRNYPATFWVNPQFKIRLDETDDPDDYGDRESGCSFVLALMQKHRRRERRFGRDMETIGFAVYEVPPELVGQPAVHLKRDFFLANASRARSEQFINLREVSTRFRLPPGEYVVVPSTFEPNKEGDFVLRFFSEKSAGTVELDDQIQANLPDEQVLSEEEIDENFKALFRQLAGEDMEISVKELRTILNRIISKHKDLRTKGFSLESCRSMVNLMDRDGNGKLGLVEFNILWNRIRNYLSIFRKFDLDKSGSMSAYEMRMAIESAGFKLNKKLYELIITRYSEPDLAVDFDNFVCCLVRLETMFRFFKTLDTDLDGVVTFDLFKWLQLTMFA
T1 sequence (P04632 whole entry partner): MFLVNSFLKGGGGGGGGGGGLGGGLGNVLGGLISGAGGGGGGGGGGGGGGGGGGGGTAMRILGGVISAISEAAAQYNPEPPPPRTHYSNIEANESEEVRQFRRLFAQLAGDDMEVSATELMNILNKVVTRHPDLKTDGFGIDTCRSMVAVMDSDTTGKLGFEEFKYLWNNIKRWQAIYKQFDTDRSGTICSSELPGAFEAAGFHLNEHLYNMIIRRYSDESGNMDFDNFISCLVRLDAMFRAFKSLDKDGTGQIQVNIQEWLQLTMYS

SMILES | IC50 (full-length human Cal1 [1]) | Relative selectivity for Cal I E64 = 1.0 (Cal I) | LD50 ≧ 50 μM primary neurons (primary neurons) | Ki [2] | ki Calpain1 [2] | rel Calpain1 [2] | ki Papain (papain) | rel Papain (papain) | blocking of active site modification by probe 27 (western blot signal) (Cal1cat vs CathB) | modification of the active site cysteine of Cal1cat (Cal1cat) | IC50 (full-length human Cal1 [3]) | Aβ levels and plaque load (Aβ40 and Aβ42 [4]) | also measured
CC(C)C[C@H](NC(=O)C1O[C@@H]1C(=O)O)C(=O)NCCCCNC(=N)N (stereo partly drawn) [Compound E64, L-trans-epoxysuccinyl-leucylamido(4-guanidino)butane, reference compound] | 100 nM | 1.0 | YES | 4000 nM | 0.12 s⁻¹ | 1 | 28.6 s⁻¹ | 1 | substantial loss of signal | concentration dependent modification | 100 nM | do not have any effect | Relative Selectivity ([2]; Cal1 over papain, ki/Ki relative to E-64 set at 1.0): 1; 10^−4 × ki/Ki Calpain1 [2, 9]: 3.02 ± 0.15; Ki (papain): 5100 nM; 10^−5 × ki/Ki Papain (papain; [9]): 56.3 ± 5.2; selectivity for Cal1cat (ratio of Cal1cat versus CathB band intensities) (Cal1cat vs CathB; ratio for probe 27 alone set as 1.0, inhibitor 5 μM): 1.5; ED50 [5]: 650 nM
CC(C)C[C@H](NS(=O)(=O)c1ccccc1)C(=O)N[C@@H](C(C)C)[C@@H](O)c1c(-c2ccccc2)c1=O [BDA-410] |  |  |  |  |  |  |  |  |  |  |  | do not have any effect | 
CC(C)C[C@H](NC(=O)[C@H]1O[C@@H]1C(=O)O)C(=O)Nc1nc(-c2ccc(F)cc2)cs1 [Compound 24a, (2S,3S)-3-((S)-1-(4-(4-fluorophenyl)thiazol-2-ylamino)-4-methyl-1-oxopentan-2-ylcarbamoyl)oxirane-2-carboxylic acid] |  |  |  | 6000 nM | 0.16 s⁻¹ | 0.91 | 17.1 s⁻¹ | 1.9 | substantially reduced signals from both enzymes | concentration dependent modification |  |  | Ki (papain; apparent equilibrium constant, read-out: K1 Papain): 1600 nM; active site modification on co-incubation of E-64 and 24a (EIC peak areas) (Cal1cat; Cal1cat with E-64 and 24a, both 1 μM): greater modification
CCOC(=O)[C@@H]1O[C@H]1C(=O)N[C@@H](Cc1cscn1)C(=O)Nc1nc(-c2ccc(F)cc2)cs1 [Compound 89] |  |  |  |  |  |  |  |  |  |  |  |  | reference memory (APP/PS1 mice [6]; 2-day RAWM, daily from 2 months): ameliorated; contextual fear memory (APP/PS1 mice [6]; daily i.p. from 2 months): ameliorated; defect in LTP (APP/PS1 mice [7]): ameliorated; Aβ40 and Aβ42 levels in hippocampi (Aβ40 and Aβ42 [8]): no difference was detected
CC(C)C[C@H](NC(=O)[C@H]1O[C@@H]1C(=O)O)C(=O)NCCCCNC(=O)CCCCC1CCSS1 (stereo partly drawn) [Compound 26, (2S,3S)-3-((2S)-1-(4-(5-(1,2-dithiolan-3-yl)pentanamido)butylamino)-4-methyl-1-oxopentan-2-ylcarbamoyl)oxirane-2-carboxylic acid] | 150 nM | 1.6 | YES |  |  |  |  |  |  |  | 100 nM |  | 
CC(C)C[C@H](NC(=O)[C@H]1O[C@@H]1C(=O)O)C(=O)NCCCCNS(=O)(=O)c1ccc(F)cc1 [Compound 25, (2S,3S)-3-((S)-1-(4-(4-fluorophenylsulfonamido)butylamino)-4-methyl-1-oxopentan-2-ylcarbamoyl)oxirane-2-carboxylic acid] | 100 nM | 0.9 | YES |  |  |  |  |  |  |  | 150 nM |  | 

Source: patent US9403843B2, “Cysteine protease inhibitors and uses thereof” (The Trustees of Columbia University in the City of New York, priority 2012, dated 2016)
